Laboratory results from ChEMBL document CHEMBL1833788, “Selective water-soluble gelatinase inhibitor prodrugs” (J Med Chem, 2011).

How the values were obtained:
[1] = Chemical stability of the compound in aqueous solution at 10 mg/ml by HPLC up to 2 hrs; type: physicochemical; conditions: buffer
[2] = Solubility of the compound in aqueous solution at 10 mg/ml by UV spectroscopy; type: physicochemical
[3] = system: Plasma; assay: Metabolic stability of the compound in human plasma at 10 mM after 2 mins by reversed-phase HPLC/UV analysis; type: ADME, cell-free; conditions: 10000 µM
[4] = system: Mus musculus; assay: Prodrug conversion in C57B1/6 mouse assessed as N-(4-(4-(thiiran-2-ylmethylsulfonyl)phenoxy)phenyl)acetamide level in plasma at […], iv administered as single bolus dose after 2 to 3 mins by reversed-phase LC/MS analysis; conditions: in vivo
[5] = system: Mus musculus; assay: Terminal half life in C57B1/6 mouse plasma assessed as parent compound level at […], iv administered as single bolus dose; type: ADME, organism-based; conditions: in vivo
[6] = system: Mus musculus; assay: Prodrug conversion in C57B1/6 mouse assessed as N-(4-(4-(thiiran-2-ylmethylsulfonyl)phenoxy)phenyl)acetamide level in plasma at […], iv administered as single bolus dose after 7 to 8 mins by reversed-phase LC/MS analysis; conditions: in vivo
[7] = system: Mus musculus; assay: AUC (0 to infinity) in C57B1/6 mouse plasma assessed as parent compound level at […], iv administered as single bolus dose; type: ADME, organism-based; conditions: in vivo
[8] = system: Mus musculus; assay: Prodrug conversion in C57B1/6 mouse assessed as N-(4-(4-((Thiiran-2-ylmethyl)sulfonyl)phenoxy)phenyl) hydroxylamine level in urine at […], iv administered as single dose by reversed-phase LC/MS analysis; type: ADME, organism-based; conditions: in vivo
[9] = system: Mus musculus; assay: Prodrug conversion in C57B1/6 mouse assessed as N-(4-(4-(thiiran-2-ylmethylsulfonyl)phenoxy)phenyl)acetamide level in plasma at […], iv administered as single bolus dose after 30 mins by reversed-phase LC/MS analysis; conditions: in vivo, 0.5 h
[10] = system: Mus musculus; assay: Clearance in C57B1/6 mouse plasma assessed as parent compound level at […], iv administered as single bolus dose; type: ADME, organism-based; conditions: in vivo
[11] = system: Mus musculus; assay: Prodrug conversion in C57B1/6 mouse assessed as N-(4-(4-(thiiran-2-ylmethylsulfonyl)phenoxy)phenyl)acetamide level in plasma at […], iv administered as single bolus dose after 120 to 123 mins by reversed-phase LC/MS analysis; conditions: in vivo
[12] = system: Mus musculus; assay: Prodrug conversion in C57B1/6 mouse assessed as N-(4-(4-((Thiiran-2-ylmethyl)sulfonyl)phenoxy)phenyl) hydroxylamine level in plasma at […], iv administered as single dose by reversed-phase LC/MS analysis; type: ADME, organism-based; conditions: in vivo
[13] = system: Mus musculus; assay: AUC (0 to infinity) in C57B1/6 mouse plasma assessed as N-(4-(4-(thiiran-2-ylmethylsulfonyl)phenoxy)phenyl)acetamide level at […], iv administered as single bolus dose; type: ADME, organism-based; conditions: in vivo, BLD = below limit of detection
[14] = system: Mus musculus; assay: Distribution half life in C57B1/6 mouse plasma assessed as N-(4-(4-(thiiran-2-ylmethylsulfonyl)phenoxy)phenyl)acetamide level at […], iv administered as single bolus dose; type: ADME, organism-based; conditions: in vivo
[15] = system: Mus musculus; assay: AUC (0 to last) in C57B1/6 mouse plasma assessed as N-(4-(4-(thiiran-2-ylmethylsulfonyl)phenoxy)phenyl)acetamide level at […], iv administered as single bolus dose; type: ADME, organism-based; conditions: in vivo
[16] = system: Mus musculus; assay: Terminal half life in C57B1/6 mouse plasma assessed as N-(4-(4-(thiiran-2-ylmethylsulfonyl)phenoxy)phenyl)acetamide level at […], iv administered as single bolus dose; type: ADME, organism-based; conditions: in vivo, BLD = below limit of detection
[17] = system: Mus musculus; assay: Prodrug conversion in C57B1/6 mouse assessed as N-(4-(4-(thiiran-2-ylmethylsulfonyl)phenoxy)phenyl)acetamide level in plasma at […], iv administered as single bolus dose after 62 to 66 mins by reversed-phase LC/MS analysis; conditions: in vivo
[18] = system: Mus musculus; assay: Volume of distribution in C57B1/6 mouse plasma assessed as parent compound level at […], iv administered as single bolus dose; type: ADME, organism-based; conditions: in vivo
[19] = system: Mus musculus; assay: Prodrug conversion in C57B1/6 mouse assessed as N-(4-(4-(thiiran-2-ylmethylsulfonyl)phenoxy)phenyl)acetamide level in plasma at […], iv administered as single bolus dose after 11 to 12 mins by reversed-phase LC/MS analysis; conditions: in vivo
[20] = target: T1, Interstitial collagenase (Homo sapiens) (UniProt P03956); assay: Inhibition of human recombinant MMP1 catalytic domain assessed as hydrolysis of MOCAcPLGLA2pr(Dnp)AR-NH2 at 300 uM by fluorescence spectrofluorometry
T1 sequence (whole entry): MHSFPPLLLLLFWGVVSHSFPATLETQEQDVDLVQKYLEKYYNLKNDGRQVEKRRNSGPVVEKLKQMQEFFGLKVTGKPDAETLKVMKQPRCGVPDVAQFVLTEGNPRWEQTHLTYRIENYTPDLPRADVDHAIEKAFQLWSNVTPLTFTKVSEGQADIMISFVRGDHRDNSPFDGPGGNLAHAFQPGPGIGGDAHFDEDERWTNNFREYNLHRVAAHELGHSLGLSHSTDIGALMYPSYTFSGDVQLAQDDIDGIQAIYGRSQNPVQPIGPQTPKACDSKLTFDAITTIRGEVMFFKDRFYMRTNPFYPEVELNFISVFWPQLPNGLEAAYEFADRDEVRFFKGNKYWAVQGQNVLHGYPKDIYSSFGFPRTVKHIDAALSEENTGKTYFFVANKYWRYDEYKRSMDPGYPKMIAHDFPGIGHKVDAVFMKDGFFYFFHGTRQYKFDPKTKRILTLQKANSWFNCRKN

[21] = target: Stromelysin-1 (Homo sapiens) (UniProt P08254); assay: Inhibition of human recombinant MMP3 catalytic domain assessed as hydrolysis of MOCAcPLGLA2pr(Dnp)AR-NH2 at 300 uM fluorescence by spectrofluorometry
Sequence of Stromelysin-1 (Homo sapiens) (P08254 100-477 limits assumed): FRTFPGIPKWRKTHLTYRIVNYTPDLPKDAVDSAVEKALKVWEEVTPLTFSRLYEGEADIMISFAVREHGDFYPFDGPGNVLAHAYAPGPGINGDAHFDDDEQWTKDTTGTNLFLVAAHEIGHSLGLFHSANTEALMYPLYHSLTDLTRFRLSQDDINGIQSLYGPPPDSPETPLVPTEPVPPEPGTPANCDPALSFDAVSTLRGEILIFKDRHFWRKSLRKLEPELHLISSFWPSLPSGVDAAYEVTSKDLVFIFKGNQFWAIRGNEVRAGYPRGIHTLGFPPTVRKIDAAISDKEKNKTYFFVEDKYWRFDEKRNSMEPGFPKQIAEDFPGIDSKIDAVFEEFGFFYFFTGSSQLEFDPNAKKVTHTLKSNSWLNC

[22] = system: Blood; assay: Prodrug conversion in human blood assessed as release of 4-[4-((Thiiran-2-yl)methylsulphonyl)phenoxy]benzamine at 10 mM after 30 mins by reversed-phase HPLC/UV analysis; type: ADME, tissue-based; conditions: 0.5 h, 10000 µM
[23] = system: Plasma; assay: Half life in human plasma at 10 mM by reversed-phase HPLC/UV analysis; type: ADME, cell-free; conditions: 10000 µM
[24] = Chemical stability of the compound in aqueous solution at 10 mg/ml by HPLC after 1 month; type: physicochemical; conditions: buffer, 730.5 h
[25] = system: Blood; assay: Half life in human blood at 10 mM by reversed-phase HPLC/UV analysis; type: ADME, tissue-based; conditions: 10000 µM
[26] = system: Salmonella typhimurium; assay: Induction of mutagenicity in Salmonella Typhimurium TA7001 to TA7006 at 1 mg/mL after 48 hrs by Ames assay in presence of rat liver S9 metabolic activation system; type: toxicity, organism-based; conditions: salmonella enterica subsp. enterica serovar typhimurium, s9, 48 h
[27] = system: Liver microsomes; assay: Half life in human liver microsomes at 100 uM by reversed-phase HPLC/UV analysis; type: ADME, Microsome
[28] = system: Liver microsomes; assay: Prodrug conversion in rat liver microsomes assessed as release of 2-amino-5-(4-(thiiran-2-ylmethylsulfonyl)phenoxy)phenol after 30 mins by HPLC/MS analysis; type: ADME, Microsome; conditions: 0.5 h
[29] = system: Liver; assay: Half life in mouse liver microsomes at 100 uM by reversed-phase HPLC/UV analysis; type: ADME, Microsome
[30] = Apparent intrinsic clearance in human liver microsomes; type: ADME, Microsome
[31] = system: Liver microsomes; assay: Half life in rat liver microsomes at 100 uM by reversed-phase HPLC/UV analysis; type: ADME, Microsome
[32] = system: Salmonella typhimurium; assay: Induction of mutagenicity in Salmonella Typhimurium TA7001 to TA7006 at 1 mg/mL after 48 hrs by Ames assay in absence of rat liver S9 metabolic activation system; type: toxicity, organism-based; conditions: salmonella enterica subsp. enterica serovar typhimurium
[33] = system: Salmonella typhimurium; assay: Induction of mutagenicity in Salmonella Typhimurium TA98 at 1 mg/mL after 48 hrs by Ames assay in presence of rat liver S9 metabolic activation system; type: toxicity, organism-based; conditions: salmonella enterica subsp. enterica serovar typhimurium, s9, 48 h
[34] = system: Salmonella typhimurium; assay: Induction of mutagenicity in Salmonella Typhimurium TA98 at 1 mg/mL after 48 hrs by Ames assay in absence of rat liver S9 metabolic activation system; type: toxicity, organism-based; conditions: salmonella enterica subsp. enterica serovar typhimurium, s9, 48 h
[35] = system: Liver microsomes; assay: Prodrug conversion in rat liver microsomes assessed as release of 4-(4-{[(1-oxidothiiran-2-yl)methyl]sulfonyl}phenoxy)aniline after 30 mins by HPLC/MS analysis; type: ADME, Microsome; conditions: 0.5 h
[36] = species on record: Homo sapiens; assay: Hepatic blood flow in human; type: ADME, organism-based, Liver
[37] = system: Liver microsomes; assay: Prodrug conversion in rat liver microsomes assessed as release of 4-(4-((S)-2-amino-5-guanidinopentanamido)phenoxy)benzenesulfinic acid after 60 mins by HPLC/MS analysis; type: ADME, Microsome; conditions: 1 h
[38] = species on record: Rattus norvegicus; assay: Hepatic blood flow in rat; type: ADME, organism-based, Liver
[39] = species on record: Mus musculus; assay: Hepatic blood flow in mouse; type: ADME, organism-based, Liver
[40] = system: Liver microsomes; assay: Prodrug conversion in rat liver microsomes assessed as release of 4-(4-aminophenoxy)benzenesulfinic acid after 60 mins by HPLC/MS analysis; type: ADME, Microsome; conditions: 1 h
[41] = system: Liver microsomes; assay: Prodrug conversion in rat liver microsomes assessed as release of N-(4-(4-(thiiran-2-ylmethylsulfonyl)phenoxy)phenyl)acetamide after 60 mins by HPLC/MS analysis; type: ADME, Microsome; conditions: 1 h
[42] = target: Matrix metalloproteinase-9 (Homo sapiens, UniProt P14780)
Sequence of Matrix metalloproteinase-9 (P14780 whole entry): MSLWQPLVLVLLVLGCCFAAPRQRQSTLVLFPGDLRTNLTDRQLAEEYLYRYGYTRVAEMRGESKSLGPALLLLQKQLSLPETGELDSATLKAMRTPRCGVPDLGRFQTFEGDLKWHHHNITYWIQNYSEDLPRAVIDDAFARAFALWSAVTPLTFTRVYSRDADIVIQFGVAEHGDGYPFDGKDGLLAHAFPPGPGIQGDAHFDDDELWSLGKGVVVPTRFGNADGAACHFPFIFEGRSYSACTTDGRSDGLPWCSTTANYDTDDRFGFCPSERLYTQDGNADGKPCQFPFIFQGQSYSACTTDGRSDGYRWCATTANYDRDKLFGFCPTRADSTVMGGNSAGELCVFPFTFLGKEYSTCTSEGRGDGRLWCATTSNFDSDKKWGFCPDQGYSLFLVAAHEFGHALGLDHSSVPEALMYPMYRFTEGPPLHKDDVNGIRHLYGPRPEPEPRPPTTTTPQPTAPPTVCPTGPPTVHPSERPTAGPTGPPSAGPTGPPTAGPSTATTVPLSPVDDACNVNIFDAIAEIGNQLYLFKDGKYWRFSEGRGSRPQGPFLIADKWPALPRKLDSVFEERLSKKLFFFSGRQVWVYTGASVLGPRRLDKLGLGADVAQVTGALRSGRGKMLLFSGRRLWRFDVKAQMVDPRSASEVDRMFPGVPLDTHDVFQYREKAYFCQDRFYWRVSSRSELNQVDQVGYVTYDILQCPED
Description: Inhibition of human recombinant MMP9 catalytic domain assessed as hydrolysis of MOCAcPLGLA2pr(Dnp)AR-NH2 by fluorescence spectrofluorometry

## NCCCC[C@H](N)C(=O)Oc1ccc(Oc2ccc(S(=O)(=O)CC3CS3)cc2)cc1 (stereo partly specified)
[1]
  Stability: Unstable
[2]
  solubility: > 10000 µg/mL
[3]
  Stability: Unstable

## N=C(N)NCCC[C@H](NC(=O)[C@@H](N)CCCNC(=N)N)C(=O)Oc1ccc(Oc2ccc(S(=O)(=O)CC3CS3)cc2)cc1 (stereo partly specified)
[1]
  Stability: Unstable
[2]
  solubility: > 10000 µg/mL
[3]
  Stability: Unstable

## N[C@@H](CCC(=O)O)C(=O)Oc1ccc(Oc2ccc(S(=O)(=O)CC3CS3)cc2)cc1 (stereo partly specified)
[1]
  Stability: Unstable
[2]
  solubility: > 10000 µg/mL
[3]
  Stability: Unstable

## Cl.Nc1ccc(Oc2ccc(S(=O)(=O)CC3CS3)cc2)cc1 (stereo unspecified)
[4]
  Drug metabolism: 0.197 µM
[5]
  beta t1/2: 21 min
[6]
  Drug metabolism: 0.192 µM
[7]
  AUC: 221 µM·min
[8]
  Drug metabolism: Not Active
[9]
  Drug metabolism: 0.0958 µM
[10]
  CL: 0.0875 L/min/kg
[11]
  Drug metabolism: 0.00277 µM
[12]
  Drug metabolism: Not Active
[13]
  AUC: BLD
[14]
  alphat1/2: 5.1 min
[15]
  AUClast: 7.71 µM·min
[16]
  beta t1/2: BLD
[17]
  Drug metabolism: 0.0273 µM
[18]
  Vd: 0.532 L/kg
[19]
  Drug metabolism: 0.15 µM

## Nc1ccc(Oc2ccc(S(=O)(=O)CC3CS3)cc2)cc1O (stereo unspecified)
[20]
  inhibition: 11%
[21]
  inhibition: 54%

## N=C(N)NCCC[C@H](N)C(=O)Oc1ccc(Oc2ccc(S(=O)(=O)CC3CS3)cc2)cc1 (stereo partly specified)
[1]
  Stability: Unstable
[2]
  solubility: > 10000 µg/mL
[3]
  Stability: Unstable

## NCC(=O)Nc1ccc(Oc2ccc(S(=O)(=O)CC3CS3)cc2)cc1 (stereo unspecified)
[2]
  solubility: > 10000 µg/mL
[22]
  Drug metabolism: Active
[23]
  t1/2: 32.4 min
[24]
  Stability: Stable
[25]
  t1/2: 27.1 min

## Nc1ccc(Oc2ccc(S(=O)(=O)CC3CS3)cc2)cc1 (stereo unspecified)
[26]
  Activity: Non-toxic
[27]
  t1/2: > 60 min
[28]
  Drug metabolism: Active
[29]
  t1/2: 27.3 min
[30]
  CLint scaled: < 10 mL/min/kg
[31]
  t1/2: 23.4 min
[32]
  Activity: Non-toxic
[33]
  Activity: Non-toxic
[34]
  Activity: Non-toxic
[35]
  Drug metabolism: Active

## NCCCC[C@H](N)C(=O)Nc1ccc(Oc2ccc(S(=O)(=O)CC3CS3)cc2)cc1 (stereo partly specified)
[2]
  solubility: > 10000 µg/mL
[22]
  Drug metabolism: Active
[23]
  t1/2: 25.1 min
[24]
  Stability: Stable
[25]
  t1/2: 15.3 min

## N=C(N)NCCC[C@H](NC(=O)[C@@H](N)CCCNC(=N)N)C(=O)Nc1ccc(Oc2ccc(S(=O)(=O)CC3CS3)cc2)cc1 (stereo partly specified)
[2]
  solubility: > 10000 µg/mL
[23]
  t1/2: 11.8 min
[24]
  Stability: Stable
[25]
  t1/2: 5.9 min

## NCC(=O)Oc1ccc(Oc2ccc(S(=O)(=O)CC3CS3)cc2)cc1 (stereo unspecified)
[1]
  Stability: Unstable
[2]
  solubility: > 10000 µg/mL
[3]
  Stability: Unstable

## N=C(N)NCCC[C@H](N)C(=O)Nc1ccc(Oc2ccc(S(=O)(=O)CC3CS3)cc2)cc1 (stereo partly specified)
[26]
  Activity: Non-toxic
[27]
  t1/2: > 60 min
[29]
  t1/2: > 60 min
[36]
  QH: 21 mL/min/kg
[2]
  solubility: > 10000 µg/mL
[22]; TDE = time-dependent effect
  Drug metabolism: tde
[37]
  Drug metabolism: Active
[38]
  QH: 66 mL/min/kg
[39]
  QH: 86 mL/min/kg
[40]
  Drug metabolism: Active
[31]
  t1/2: 59.3 min
[23]
  t1/2: 29.5 min
[24]
  Stability: Stable
[41]
  Drug metabolism: Active
[32]
  Activity: Non-toxic
[33]
  Activity: Non-toxic
[34]
  Activity: Non-toxic
[25]
  t1/2: 25.4 min

## N[C@@H](CCC(=O)O)C(=O)Nc1ccc(Oc2ccc(S(=O)(=O)CC3CS3)cc2)cc1 (stereo partly specified)
[42]
  Ki: 4.3 µM
[2]
  solubility: > 10000 µg/mL
[22]
  Drug metabolism: Active
[23]
  t1/2: 32.8 min
[24]
  Stability: Stable
[25]
  t1/2: 27.9 min
